Laboratory results as given in patent publication US20150225369A1, “DDR2 INHIBITORS FOR THE TREATMENT OF OSTEOARTHRITIS” (Merck Patent GmbH, priority 2012, published 2015).
pIC50: −log10 of the molar value.

Key:
[1] = target: T1, HEK293 transfected with human DDR2 (Homo sapiens, UniProt Q16832); assay: Phospho-DDR2 cellular assay (collagen II induced DDR2 phosphorylation, ELISA); format: cell-based; conditions: HEK293 transfected with human DDR2, 50 μg/ml chicken collagen II, 16 h; read-out: IC50 [p-DDR2]
T1 construct: expressed in transfected cells; host or cells: HEK293 (PLT460F_(DDR2)-P7-1)
T1 sequence (Q16832 22-855): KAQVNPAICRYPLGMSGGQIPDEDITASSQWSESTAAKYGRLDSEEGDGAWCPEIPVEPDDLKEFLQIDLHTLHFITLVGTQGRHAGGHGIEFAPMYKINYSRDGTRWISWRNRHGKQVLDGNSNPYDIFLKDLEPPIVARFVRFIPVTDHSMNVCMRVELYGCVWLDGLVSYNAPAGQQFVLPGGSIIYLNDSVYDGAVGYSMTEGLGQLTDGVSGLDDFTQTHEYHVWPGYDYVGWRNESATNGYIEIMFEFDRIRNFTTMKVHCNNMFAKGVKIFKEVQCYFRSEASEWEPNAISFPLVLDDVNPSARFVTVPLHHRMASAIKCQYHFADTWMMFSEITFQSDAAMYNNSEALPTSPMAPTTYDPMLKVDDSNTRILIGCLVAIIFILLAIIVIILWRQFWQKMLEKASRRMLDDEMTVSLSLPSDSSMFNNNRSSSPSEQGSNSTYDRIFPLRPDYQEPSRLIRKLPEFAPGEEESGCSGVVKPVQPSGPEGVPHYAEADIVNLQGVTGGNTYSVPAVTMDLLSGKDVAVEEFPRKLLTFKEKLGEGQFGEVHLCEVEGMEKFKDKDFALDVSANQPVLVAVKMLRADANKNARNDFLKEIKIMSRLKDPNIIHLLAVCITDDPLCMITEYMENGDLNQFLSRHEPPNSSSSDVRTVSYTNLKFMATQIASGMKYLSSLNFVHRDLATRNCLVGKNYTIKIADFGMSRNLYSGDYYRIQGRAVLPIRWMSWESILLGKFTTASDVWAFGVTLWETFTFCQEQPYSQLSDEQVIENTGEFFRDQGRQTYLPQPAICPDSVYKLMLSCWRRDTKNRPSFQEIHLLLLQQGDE
Summary of the method: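 Cells seeded 48 h in 10% FBS, serum-starved 8 h, then given compound (5% DMSO) with 50 μg/ml chicken collagen II for 16 h at 37 °C. Lysates captured on anti-DDR2 antibody plates; phospho-DDR2 detected with HRP anti-phosphotyrosine antibody by chemiluminescence.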

[2] = target: T2, His-tagged human recombinant DDR-2 kinase domain (His-TEV-DDR2 467-855 aa) (Homo sapiens, UniProt Q16832); assay: Autophosphorylation assay for biochemical activity testing of DDR2 (HTRF); conditions: 4 nM DDR2 kinase domain, 150 μM ATP, 150 min at 22° C.
T2 construct: His-TEV-DDR2 467-855 aa
T2 sequence (Q16832 467-855): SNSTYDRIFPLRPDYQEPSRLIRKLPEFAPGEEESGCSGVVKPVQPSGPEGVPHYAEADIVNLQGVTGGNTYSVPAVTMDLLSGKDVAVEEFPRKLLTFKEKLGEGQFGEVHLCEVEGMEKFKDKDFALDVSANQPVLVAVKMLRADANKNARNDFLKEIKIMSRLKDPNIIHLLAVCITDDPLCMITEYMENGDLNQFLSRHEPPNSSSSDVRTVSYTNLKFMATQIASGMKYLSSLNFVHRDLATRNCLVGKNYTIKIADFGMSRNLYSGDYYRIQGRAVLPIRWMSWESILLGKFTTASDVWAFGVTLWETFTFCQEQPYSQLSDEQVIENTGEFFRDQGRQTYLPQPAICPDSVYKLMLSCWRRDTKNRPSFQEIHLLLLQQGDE
Summary of the method: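 Phospho-tyrosine was detected by HTRF between XL665 anti-6His and cryptate anti-phosphotyrosine PT66 antibodies, using the emission ratio. Inhibition was referenced to the inhibitor-free reaction.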

| Structure (SMILES) | pIC50 [1] | pIC50 [2] |
| --- | --- | --- |
| CNC(=O)c1cc(Oc2ccc(CNC(=O)Nc3cc(C(F)(F)F)cn(C)c3=O)cc2)ccn1 [compound 8] | 7.55 | 7.01 |
| COc1ncc(C)cc1NC(=O)NCc1ccc(Oc2ccncc2)cc1 [compound 18] | 7.52 | 7.00 |
| CNC(=O)c1cc(Oc2ccc(CNC(=O)Nc3cc(C(F)(F)F)cnc3Cl)cc2C)ccn1 [compound 26] | 7.37 | 7.28 |
| Cc1cc(Oc2ccc(CNC(=O)Nc3cc(C(F)(F)F)cnc3Cl)cc2C)ccn1 [compound 30] | 7.22 | 7.00 |

The remaining molecules from weak to strong by pIC50 [1], led by results:

| pIC50 [1] | pIC50 [2] | Structure (SMILES) |
| --- | --- | --- |
| 7.52 | 6.96 | Cc1cc(Oc2ccc(CNC(=O)Nc3cc(C(F)(F)F)cn(C)c3=O)cc2C)ccn1 [compound 6] |
| 7.62 | 7.20 | CNC(=O)c1cc(Oc2ccc(CNC(=O)Nc3cc(C)cnc3OC)cc2)ccn1 [compound 19] |
| 7.77 | 6.96 | COc1ncc(Cl)cc1NC(=O)NCc1ccc(Oc2ccnc(C)c2)c(C)c1 [compound 28] |
| 7.85 | 7.36 | CNC(=O)c1cc(Oc2ccc(CNC(=O)Nc3cc(Cl)cnc3OC)cc2)ccn1 [compound 21] |
| 7.92 | 7.43 | CNC(=O)c1cc(Oc2ccc(CNC(=O)Nc3cc(C(F)(F)F)cn(C)c3=O)cc2C)ccn1 [compound 7] |
| 8.17 | 7.43 | CNC(=O)c1cc(Oc2ccc(CNC(=O)Nc3cc(Cl)cnc3OC)cc2C)ccn1 [compound 23] |
